This is an account of results in ChEMBL document CHEMBL1201862, “PubChem BioAssay data set” (2004).

Among the test systems are A549; NCI-H460; A498; MDA-N; M14; U-251; HCC 2998; MDA-MB-231; OVCAR-8; MCF7; KM12; UO-31; ACHN; MOLT-4; NCI-H226; CCRF-CEM; Hs-578T; SK-OV-3; BT-549; HT-29.
What all share (assay): NCI tumour cell line growth inhibition, 48 h

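Step 1: Grow cells in 96-well plates. Step 2: Expose to compound for 48 hours at 5 concentrations. Step 3: Interpolate endpoints linearly; if unreached, use highest concentration. At the GI50, growth is halved.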 Calls of active or inactive are those of the source. Rule as the data show it: active = GI50 up to about 1.1 µM and inactive = higher. Bounds are passed on as bounds.

Regarding `C=CCn1c(=O)c(Br)nn(CCOCP(=O)(OCC)OCC)c1=O`, the GI50 with A549, with NCI-H460, with A498, with MDA-N, with M14 and in the test on U-251 was > 100 µM (inactive) throughout. Further, the GI50 in the test with HCC 2998, in the test on MDA-MB-231, in the test with OVCAR-8, with MCF7, with KM12 and in the test with UO-31 was > 100 µM (inactive) throughout. The GI50 in the test with ACHN, in the test with MOLT-4, in the test on NCI-H226, in the test on CCRF-CEM and in the test on Hs-578T was > 100 µM (inactive) in each case.
As to `COc1ccc(-n2c(N)c(C#N)c(C#N)c2-c2ccccc2)cc1`, the GI50 with A549 was > 100 µM (inactive); with A498 it was > 100 µM (inactive); with M14 it was > 100 µM (inactive); with U-251 it was 30.1 µM (inactive); with HCC 2998, > 100 µM (inactive); in the test with MDA-MB-231, > 100 µM (inactive). Also, the GI50 with SK-OV-3 is > 100 µM (inactive); with OVCAR-8, 84.7 µM (inactive); with MCF7, > 100 µM (inactive); in the test with KM12 it was > 100 µM (inactive); with BT-549 it was 19.1 µM (inactive); in the test on UO-31, > 100 µM (inactive). Besides, the GI50 with ACHN was > 100 µM (inactive); with MOLT-4, > 100 µM (inactive); in the test with NCI-H226, 13.8 µM (inactive); in the test on CCRF-CEM it was > 100 µM (inactive); in the test with HT-29 it was > 100 µM (inactive); in the test on Hs-578T it was 6.58 µM (inactive).
Consider `Cc1ccc(S(=O)(=O)NNC(C[N+](=O)[O-])c2ccccc2)cc1` (stereo not drawn), for which the GI50 was 16.7 µM (inactive) in the test with A549; 17.9 µM (inactive) in the test on NCI-H460; 16.1 µM (inactive) with A498; 5.65 µM (inactive) with M14; 14.5 µM (inactive) in the test with U-251; 2.9 µM (inactive) with HCC 2998. Also, the GI50 with MDA-MB-231 was 28.4 µM (inactive); in the test on SK-OV-3, 21.9 µM (inactive); in the test with OVCAR-8, 22 µM (inactive); in the test with MCF7, 3.88 µM (inactive); with KM12, 14.1 µM (inactive); in the test with BT-549, 15.6 µM (inactive). Moreover, the GI50 was 22.3 µM (inactive) in the test on UO-31; 16.1 µM (inactive) with ACHN; 3.56 µM (inactive) with MOLT-4; 26.3 µM (inactive) with NCI-H226; > 100 µM (inactive) in the test on CCRF-CEM; 2.02 µM (inactive) in the test on HT-29. For the same compound, in the test on Hs-578T, the GI50 is 44.4 µM (inactive).
With `CC(=O)Oc1c(-c2ccccc2)oc2ccccc12`, the GI50 was 1.51 µM (inactive) in the test with A549; 0.678 µM (active) in the test with NCI-H460; 2.96 µM (inactive) with A498; 2.02 µM (inactive) in the test on M14; 1.04 µM (active) with U-251; 1.31 µM (inactive) in the test with HCC 2998. Also, the GI50 was 1.45 µM (inactive) with MDA-MB-231; 2.88 µM (inactive) with OVCAR-8; 2.11 µM (inactive) in the test on MCF7; 1.09 µM (active) in the test on KM12; 2.65 µM (inactive) in the test on BT-549; 1.61 µM (inactive) in the test on UO-31. Further, the GI50 in the test on ACHN is 1.79 µM (inactive); in the test on MOLT-4 it was 1.89 µM (inactive); with NCI-H226 it was 2.07 µM (inactive); in the test on CCRF-CEM it was 1.58 µM (inactive); with HT-29 it was 2.5 µM (inactive); in the test on Hs-578T, 2.36 µM (inactive).
Turning to `CC(C)(C)OC(=O)N1C(=O)C2CCCC21` (stereo not drawn), the GI50 with A549, in the test on NCI-H460, with A498, in the test with M14, in the test on U-251 and in the test with HCC 2998 was > 100 µM (inactive) throughout. In addition, the GI50 in the test on MDA-MB-231, with SK-OV-3, with OVCAR-8, in the test with KM12, in the test on BT-549 and in the test with ACHN was > 100 µM (inactive) throughout. The GI50 in the test on MOLT-4, in the test on NCI-H226, in the test on CCRF-CEM, with HT-29 and in the test with Hs-578T was > 100 µM (inactive) in each case.
For the compound `O=c1[nH]c(=O)n(C2OC(CO)C(O)C2O)cc1OCCCc1ccccc1` (stereo not drawn), the GI50 in the test on A549, in the test on NCI-H460, in the test on A498, in the test with MDA-N, with M14 and in the test on HCC 2998 was > 100 µM (inactive) each time. Also, the GI50 in the test on MDA-MB-231, with SK-OV-3, in the test on OVCAR-8, with MCF7, in the test with KM12 and with ACHN was > 100 µM (inactive) in each case. Further, the GI50 with MOLT-4, in the test on NCI-H226, with CCRF-CEM, in the test with HT-29 and in the test with Hs-578T was > 100 µM (inactive) in each case.
`Cc1ccc2nc(CN3CCCCC3)cc(=O)n2c1`: the GI50 in the test with A549, in the test on NCI-H460, with M14, in the test on U-251, in the test on HCC 2998 and in the test with MDA-MB-231 was > 100 µM (inactive) each time. Besides, the GI50 with SK-OV-3, in the test on OVCAR-8, in the test on MCF7, in the test on KM12, in the test on BT-549 and in the test with UO-31 was > 100 µM (inactive) each time. Moreover, the GI50 in the test on ACHN, in the test with MOLT-4, with NCI-H226, with CCRF-CEM, in the test on HT-29 and with Hs-578T was > 100 µM (inactive) each time.
Consider `O=C1C(=C(C(F)(F)Cl)C(F)(F)Cl)C2CCC1C2` (stereo not drawn), for which the GI50 was 2.2 µM (inactive) with A549; 3.15 µM (inactive) in the test on NCI-H460; > 10 µM (inactive) in the test with A498; 1.16 µM (inactive) in the test with M14; 5.27 µM (inactive) in the test with U-251; 5.31 µM (inactive) in the test with HCC 2998. Besides, the GI50 was 1.56 µM (inactive) with MDA-MB-231; > 10 µM (inactive) with SK-OV-3; 1.94 µM (inactive) with OVCAR-8; 2.49 µM (inactive) with MCF7; 3.01 µM (inactive) with KM12; 1.58 µM (inactive) in the test on BT-549. Besides, the GI50 with UO-31 was 2.49 µM (inactive); in the test with ACHN, 1.84 µM (inactive); with MOLT-4 it was 0.0131 µM (active); in the test with NCI-H226, > 5.38 µM (inactive); in the test on CCRF-CEM, 0.00986 µM (active); in the test on HT-29, 2.19 µM (inactive). Besides, in the test on Hs-578T, the GI50 was 4.51 µM (inactive).
